Assay results: publication PMC4490784, “Compensatory induction of MYC expression by sustained CDK9 inhibition via a BRD4-dependent mechanism” (eLife, 2015)

Legend:
Test in all cases: KINOMEscan binding assay
ULK3 = biological target: T1, ULK3 (Homo sapiens, UniProt Q6PHR2)
T1 construct: purchased DiscoveRx KINOMEscan
Procedure, shortened: (§1)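 Binding, not catalytic activity, is measured: the compound competes with an active-site-directed ligand. Screening concentrations were 1 and 10 µM, applied across more than 400 kinases.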

YANK3 = biological target: T2, YANK3 (Homo sapiens, UniProt Q86UX6); conditions: read-out: % Retention on Solid Support
T2 construct: purchased DiscoveRx KINOMEscan
Procedure, shortened: as §1

MYO3B = biological target: T3, MYO3B (Homo sapiens, UniProt Q8WXR4); conditions: read-out: % Retention on Solid Support
T3 construct: purchased DiscoveRx KINOMEscan
Procedure, shortened: as §1

FLT3 = biological target: T4, FLT3 (Homo sapiens, UniProt P36888); conditions: read-out: % Retention on Solid Support
T4 construct: purchased DiscoveRx KINOMEscan
Procedure, shortened: as §1

HPK1 = biological target: T5, HPK1 (Homo sapiens, UniProt Q92918); conditions: read-out: % Retention on Solid Support
T5 construct: purchased DiscoveRx KINOMEscan
Procedure, shortened: as §1

EGFR(L861Q) = biological target: T6, EGFR(L861Q) (Homo sapiens, UniProt P00533, L861Q)
T6 construct: purchased DiscoveRx KINOMEscan
Procedure, shortened: as §1

DLK = biological target: T7, DLK (Homo sapiens, UniProt Q12852)
T7 construct: purchased DiscoveRx KINOMEscan
Procedure, shortened: as §1

EPHB1 = biological target: T8, EPHB1 (Homo sapiens, UniProt P54762); conditions: read-out: % Retention on Solid Support
T8 construct: purchased DiscoveRx KINOMEscan
Procedure, shortened: as §1

GSK3A = biological target: T9, GSK3A (Homo sapiens, UniProt P49840); conditions: read-out: % Retention on Solid Support
T9 construct: purchased DiscoveRx KINOMEscan
Procedure, shortened: as §1

CAMK2A = biological target: T10, CAMK2A (Homo sapiens, UniProt Q9UQM7); conditions: read-out: % Retention on Solid Support
T10 construct: purchased DiscoveRx KINOMEscan
Procedure, shortened: as §1

SYK = biological target: T11, SYK (Homo sapiens, UniProt P43405)
T11 construct: purchased DiscoveRx KINOMEscan
Procedure, shortened: as §1

ASK2 = biological target: T12, ASK2 (Homo sapiens, UniProt O95382); conditions: read-out: % Retention on Solid Support
T12 construct: purchased DiscoveRx KINOMEscan
Procedure, shortened: as §1

ACVRL1 = biological target: T13, ACVRL1 (Homo sapiens, UniProt P37023); conditions: read-out: % Retention on Solid Support
T13 construct: purchased DiscoveRx KINOMEscan
Procedure, shortened: as §1

p38-delta = biological target: T14, p38-delta (Homo sapiens, UniProt O15264); conditions: read-out: % Retention on Solid Support
T14 construct: purchased DiscoveRx KINOMEscan
Procedure, shortened: as §1

DDR2 = biological target: T15, DDR2 (Homo sapiens, UniProt Q16832); conditions: read-out: % Retention on Solid Support
T15 construct: purchased DiscoveRx KINOMEscan
Procedure, shortened: as §1

SNRK = biological target: T16, SNRK (Homo sapiens, UniProt Q9NRH2); conditions: 1 µM i-CDK9; read-out: % Retention on Solid Support
T16 construct: purchased DiscoveRx KINOMEscan
Procedure, shortened: as §1

PIK3CA(Q546K) = biological target: T17, PIK3CA(Q546K) (Homo sapiens, UniProt P42336, Q546K); conditions: read-out: % Retention on Solid Support
T17 construct: purchased DiscoveRx KINOMEscan
Procedure, shortened: as §1

ACVR1 = biological target: T18, ACVR1 (Homo sapiens, UniProt Q04771); conditions: read-out: % Retention on Solid Support
T18 construct: purchased DiscoveRx KINOMEscan
Procedure, shortened: as §1

EIF2AK1 = biological target: T19, EIF2AK1 (Homo sapiens, UniProt Q9BQI3); conditions: 1 µM i-CDK9; read-out: % Retention on Solid Support
T19 construct: purchased DiscoveRx KINOMEscan
Procedure, shortened: as §1

PAK6 = biological target: T20, PAK6 (Homo sapiens, UniProt Q9NQU5); conditions: read-out: % Retention on Solid Support
T20 construct: purchased DiscoveRx KINOMEscan
Procedure, shortened: as §1

DMPK = biological target: T21, DMPK (Homo sapiens, UniProt Q09013); conditions: read-out: % Retention on Solid Support
T21 construct: purchased DiscoveRx KINOMEscan
Procedure, shortened: as §1

DCAMKL2 = biological target: T22, DCAMKL2 (Homo sapiens, UniProt Q8N568); conditions: read-out: % Retention on Solid Support
T22 construct: purchased DiscoveRx KINOMEscan
Procedure, shortened: as §1

FLT3(K663Q) = biological target: T23, FLT3(K663Q) (Homo sapiens, UniProt P36888, K663Q); conditions: read-out: % Retention on Solid Support
T23 construct: purchased DiscoveRx KINOMEscan
Procedure, shortened: as §1

DYRK1A = DYRK1A (Homo sapiens, UniProt Q13627); conditions: read-out: % Retention on Solid Support
Procedure, shortened: as §1

ZAK = biological target: T24, ZAK (Homo sapiens, UniProt Q9NYL2); conditions: read-out: % Retention on Solid Support
T24 construct: purchased DiscoveRx KINOMEscan
Procedure, shortened: as §1

DRAK1 = biological target: T25, DRAK1 (Homo sapiens, UniProt Q9UEE5); conditions: read-out: % Retention on Solid Support
T25 construct: purchased DiscoveRx KINOMEscan
Procedure, shortened: as §1

ERK8 = biological target: T26, ERK8 (Homo sapiens, UniProt Q8TD08); conditions: read-out: % Retention on Solid Support
T26 construct: purchased DiscoveRx KINOMEscan
Procedure, shortened: as §1

PIP5K2B = biological target: T27, PIP5K2B (Homo sapiens, UniProt P78356); conditions: read-out: % Retention on Solid Support
T27 construct: purchased DiscoveRx KINOMEscan
Procedure, shortened: as §1

AURKB = biological target: T28, AURKB (Homo sapiens, UniProt Q96GD4); conditions: read-out: % Retention on Solid Support
T28 construct: purchased DiscoveRx KINOMEscan
Procedure, shortened: as §1

PLK2 = biological target: T29, PLK2 (Homo sapiens, UniProt Q9NYY3)
T29 construct: purchased DiscoveRx KINOMEscan
Procedure, shortened: as §1

T5 sequence (Q92918 whole entry): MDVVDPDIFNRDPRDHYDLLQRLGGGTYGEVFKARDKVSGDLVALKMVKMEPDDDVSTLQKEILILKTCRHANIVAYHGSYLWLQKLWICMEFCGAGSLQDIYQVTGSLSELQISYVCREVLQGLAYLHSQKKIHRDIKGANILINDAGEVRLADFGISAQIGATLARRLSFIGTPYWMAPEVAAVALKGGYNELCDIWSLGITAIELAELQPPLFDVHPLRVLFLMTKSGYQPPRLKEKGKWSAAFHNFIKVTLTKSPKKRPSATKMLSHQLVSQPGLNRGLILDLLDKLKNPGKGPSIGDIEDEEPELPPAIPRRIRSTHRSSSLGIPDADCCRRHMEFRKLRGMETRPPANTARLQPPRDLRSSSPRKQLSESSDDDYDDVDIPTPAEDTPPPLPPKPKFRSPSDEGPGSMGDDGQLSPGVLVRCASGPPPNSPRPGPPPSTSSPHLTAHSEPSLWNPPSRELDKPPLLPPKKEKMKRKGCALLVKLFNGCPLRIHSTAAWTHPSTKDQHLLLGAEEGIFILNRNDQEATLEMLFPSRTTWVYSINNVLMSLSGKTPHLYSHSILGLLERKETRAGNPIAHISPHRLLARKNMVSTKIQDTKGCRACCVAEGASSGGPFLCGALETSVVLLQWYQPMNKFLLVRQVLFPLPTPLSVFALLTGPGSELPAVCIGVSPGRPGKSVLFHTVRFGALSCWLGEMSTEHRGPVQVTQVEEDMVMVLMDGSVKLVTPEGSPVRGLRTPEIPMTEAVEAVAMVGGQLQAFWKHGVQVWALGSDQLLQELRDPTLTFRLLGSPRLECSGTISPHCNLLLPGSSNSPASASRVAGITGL
T10 sequence (Q9UQM7 whole entry): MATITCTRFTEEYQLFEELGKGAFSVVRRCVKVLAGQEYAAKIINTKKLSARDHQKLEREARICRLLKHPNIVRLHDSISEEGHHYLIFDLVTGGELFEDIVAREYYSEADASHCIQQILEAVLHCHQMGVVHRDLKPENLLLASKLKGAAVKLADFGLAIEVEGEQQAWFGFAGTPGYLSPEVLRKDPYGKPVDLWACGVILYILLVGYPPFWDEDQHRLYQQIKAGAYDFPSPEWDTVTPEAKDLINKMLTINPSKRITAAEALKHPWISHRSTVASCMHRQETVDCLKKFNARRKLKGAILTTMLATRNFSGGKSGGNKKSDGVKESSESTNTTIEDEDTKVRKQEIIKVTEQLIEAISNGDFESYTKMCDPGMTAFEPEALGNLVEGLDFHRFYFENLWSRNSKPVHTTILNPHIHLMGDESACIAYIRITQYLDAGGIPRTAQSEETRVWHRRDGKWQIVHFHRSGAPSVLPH
T17 sequence (P42336 whole entry Q546K): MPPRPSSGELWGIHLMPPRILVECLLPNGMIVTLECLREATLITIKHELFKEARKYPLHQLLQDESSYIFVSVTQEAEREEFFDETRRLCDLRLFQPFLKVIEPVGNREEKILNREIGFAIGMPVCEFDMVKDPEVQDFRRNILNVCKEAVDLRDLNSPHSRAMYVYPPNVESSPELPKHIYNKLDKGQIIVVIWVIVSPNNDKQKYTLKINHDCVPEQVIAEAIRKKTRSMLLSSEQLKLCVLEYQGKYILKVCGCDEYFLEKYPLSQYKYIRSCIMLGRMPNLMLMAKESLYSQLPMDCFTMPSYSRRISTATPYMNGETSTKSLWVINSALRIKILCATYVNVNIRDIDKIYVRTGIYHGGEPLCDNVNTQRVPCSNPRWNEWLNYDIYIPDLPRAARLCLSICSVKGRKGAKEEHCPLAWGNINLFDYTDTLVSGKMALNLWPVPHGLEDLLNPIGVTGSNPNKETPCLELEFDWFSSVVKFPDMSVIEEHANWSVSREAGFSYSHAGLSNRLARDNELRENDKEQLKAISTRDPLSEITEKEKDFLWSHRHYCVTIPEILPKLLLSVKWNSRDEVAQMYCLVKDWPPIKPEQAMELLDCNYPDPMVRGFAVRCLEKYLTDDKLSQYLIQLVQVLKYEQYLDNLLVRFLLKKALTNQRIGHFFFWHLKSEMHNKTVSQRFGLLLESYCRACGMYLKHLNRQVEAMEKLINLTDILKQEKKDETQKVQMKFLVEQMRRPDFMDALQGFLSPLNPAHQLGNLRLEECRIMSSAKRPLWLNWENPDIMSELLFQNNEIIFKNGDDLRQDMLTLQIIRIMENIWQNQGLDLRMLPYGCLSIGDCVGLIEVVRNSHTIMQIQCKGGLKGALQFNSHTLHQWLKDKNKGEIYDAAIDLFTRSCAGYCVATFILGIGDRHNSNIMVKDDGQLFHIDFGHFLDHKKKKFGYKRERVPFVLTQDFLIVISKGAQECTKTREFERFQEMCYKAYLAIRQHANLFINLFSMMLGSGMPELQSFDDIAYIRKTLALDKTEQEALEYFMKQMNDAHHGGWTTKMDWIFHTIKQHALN
T14 sequence (O15264 whole entry): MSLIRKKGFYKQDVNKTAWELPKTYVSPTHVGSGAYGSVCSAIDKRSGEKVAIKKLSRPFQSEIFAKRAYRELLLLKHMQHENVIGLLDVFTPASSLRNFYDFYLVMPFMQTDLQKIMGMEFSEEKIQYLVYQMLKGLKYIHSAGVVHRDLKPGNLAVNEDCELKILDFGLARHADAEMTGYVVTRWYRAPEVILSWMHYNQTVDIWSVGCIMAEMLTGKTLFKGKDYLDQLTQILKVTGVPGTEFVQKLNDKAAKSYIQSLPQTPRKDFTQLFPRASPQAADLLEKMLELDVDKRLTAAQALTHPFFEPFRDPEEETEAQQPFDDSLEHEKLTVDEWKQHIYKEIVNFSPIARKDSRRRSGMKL
T25 sequence (Q9UEE5 whole entry): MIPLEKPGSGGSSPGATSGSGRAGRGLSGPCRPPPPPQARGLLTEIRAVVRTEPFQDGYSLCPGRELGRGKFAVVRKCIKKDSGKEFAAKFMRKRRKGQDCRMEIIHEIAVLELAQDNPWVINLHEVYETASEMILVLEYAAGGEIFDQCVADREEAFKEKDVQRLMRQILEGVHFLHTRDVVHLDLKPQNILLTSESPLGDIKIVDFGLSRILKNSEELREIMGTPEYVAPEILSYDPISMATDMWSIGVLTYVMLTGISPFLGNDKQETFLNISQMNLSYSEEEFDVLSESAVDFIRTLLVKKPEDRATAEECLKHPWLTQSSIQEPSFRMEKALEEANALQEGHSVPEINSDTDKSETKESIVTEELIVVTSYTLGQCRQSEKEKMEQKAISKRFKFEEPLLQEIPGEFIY
T9 sequence (P49840 whole entry): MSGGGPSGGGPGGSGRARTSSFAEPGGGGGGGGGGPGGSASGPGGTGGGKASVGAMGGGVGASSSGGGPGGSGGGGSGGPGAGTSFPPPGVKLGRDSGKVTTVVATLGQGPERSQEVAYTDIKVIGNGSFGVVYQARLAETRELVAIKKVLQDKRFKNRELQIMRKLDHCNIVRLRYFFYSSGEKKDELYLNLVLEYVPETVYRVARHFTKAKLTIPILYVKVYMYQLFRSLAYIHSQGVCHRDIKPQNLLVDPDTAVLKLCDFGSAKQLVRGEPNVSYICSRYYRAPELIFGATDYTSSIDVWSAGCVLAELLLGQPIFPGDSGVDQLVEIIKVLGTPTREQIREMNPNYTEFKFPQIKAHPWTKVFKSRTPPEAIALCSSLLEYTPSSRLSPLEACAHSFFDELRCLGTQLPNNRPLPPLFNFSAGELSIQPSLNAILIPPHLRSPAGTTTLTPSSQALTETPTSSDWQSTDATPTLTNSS
T18 sequence (Q04771 21-509): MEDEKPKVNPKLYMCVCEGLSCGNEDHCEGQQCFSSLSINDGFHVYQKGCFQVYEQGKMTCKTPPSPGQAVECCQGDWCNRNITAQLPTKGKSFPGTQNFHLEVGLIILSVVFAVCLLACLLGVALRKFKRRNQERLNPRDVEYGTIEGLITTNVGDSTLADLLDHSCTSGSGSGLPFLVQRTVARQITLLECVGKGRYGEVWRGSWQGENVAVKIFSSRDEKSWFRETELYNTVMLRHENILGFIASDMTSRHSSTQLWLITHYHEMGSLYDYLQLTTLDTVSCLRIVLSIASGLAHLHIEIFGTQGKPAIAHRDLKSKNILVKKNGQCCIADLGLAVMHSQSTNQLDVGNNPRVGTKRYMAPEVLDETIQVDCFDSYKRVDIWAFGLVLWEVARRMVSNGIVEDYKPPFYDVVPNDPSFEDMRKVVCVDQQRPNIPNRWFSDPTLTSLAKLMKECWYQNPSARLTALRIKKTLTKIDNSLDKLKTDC
T7 sequence (Q12852 whole entry): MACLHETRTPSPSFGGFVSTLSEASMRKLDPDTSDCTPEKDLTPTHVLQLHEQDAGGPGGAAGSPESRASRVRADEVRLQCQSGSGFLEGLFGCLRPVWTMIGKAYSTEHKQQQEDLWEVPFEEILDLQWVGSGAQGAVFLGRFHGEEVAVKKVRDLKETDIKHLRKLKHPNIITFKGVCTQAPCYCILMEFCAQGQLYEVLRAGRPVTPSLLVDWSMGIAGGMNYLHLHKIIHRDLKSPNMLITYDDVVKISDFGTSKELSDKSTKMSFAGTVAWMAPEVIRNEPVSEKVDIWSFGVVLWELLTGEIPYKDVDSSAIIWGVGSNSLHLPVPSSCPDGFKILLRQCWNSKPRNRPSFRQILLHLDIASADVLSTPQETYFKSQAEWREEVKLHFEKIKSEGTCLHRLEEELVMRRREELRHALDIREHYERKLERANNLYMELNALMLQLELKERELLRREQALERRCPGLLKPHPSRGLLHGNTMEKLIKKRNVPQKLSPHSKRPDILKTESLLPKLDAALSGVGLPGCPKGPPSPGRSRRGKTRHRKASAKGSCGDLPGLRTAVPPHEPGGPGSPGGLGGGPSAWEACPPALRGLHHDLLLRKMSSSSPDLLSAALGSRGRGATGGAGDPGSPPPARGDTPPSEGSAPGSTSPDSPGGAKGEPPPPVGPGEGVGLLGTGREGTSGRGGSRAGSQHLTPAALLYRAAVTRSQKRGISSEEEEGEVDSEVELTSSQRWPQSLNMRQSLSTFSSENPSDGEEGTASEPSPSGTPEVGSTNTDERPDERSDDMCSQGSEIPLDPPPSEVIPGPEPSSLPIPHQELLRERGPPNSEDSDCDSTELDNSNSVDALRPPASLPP

SMILES: N[C@H]1CC[C@H](Nc2cc(-c3cccc(NCc4cccc(F)c4)n3)c(Cl)cn2)CC1 [i-CDK9, N2′-(trans-4-aminocyclohexyl)-5′-chloro-N6-(3-fluorobenzyl)-2,4′-bipyridine-2′,6-diamine]
- % Retention on Solid Support (ULK3; 1 µM i-CDK9): 94%
- % Retention on Solid Support (ULK3; 10 µM i-CDK9): 88%
- remaining binding at 1 µM (YANK3; 1 µM i-CDK9): 89%
- remaining binding at 10 µM (YANK3; 10 µM i-CDK9): 50%
- remaining binding at 1 µM (MYO3B; 1 µM i-CDK9): 100%
- remaining binding at 10 µM (MYO3B; 10 µM i-CDK9): 36%
- remaining binding at 1 µM (FLT3; 1 µM i-CDK9): 78%
- remaining binding at 10 µM (FLT3; 10 µM i-CDK9): 100%
- remaining binding at 1 µM (HPK1; 1 µM i-CDK9): 86%
- remaining binding at 10 µM (HPK1; 10 µM i-CDK9): 100%
- % Retention on Solid Support (EGFR(L861Q); 1 µM i-CDK9): 78%
- % Retention on Solid Support (EGFR(L861Q); 10 µM i-CDK9): 74%
- % Retention on Solid Support (DLK; 1 µM i-CDK9): 100%
- % Retention on Solid Support (DLK; 10 µM i-CDK9): 71%
- remaining binding at 1 µM (EPHB1; 1 µM i-CDK9): 100%
- remaining binding at 10 µM (EPHB1; 10 µM i-CDK9): 100%
- remaining binding at 1 µM (GSK3A; 1 µM i-CDK9): 93%
- remaining binding at 10 µM (GSK3A; 10 µM i-CDK9): 8.7%
- remaining binding at 1 µM (CAMK2A; 1 µM i-CDK9): 91%
- remaining binding at 10 µM (CAMK2A; 10 µM i-CDK9): 81%
- % Retention on Solid Support (SYK; 1 µM i-CDK9): 86%
- % Retention on Solid Support (SYK; 10 µM i-CDK9): 100%
- remaining binding at 1 µM (ASK2; 1 µM i-CDK9): 100%
- remaining binding at 10 µM (ASK2; 10 µM i-CDK9): 92%
- remaining binding at 1 µM (ACVRL1; 1 µM i-CDK9): 95%
- remaining binding at 10 µM (ACVRL1; 10 µM i-CDK9): 100%
- remaining binding at 1 µM (p38-delta; 1 µM i-CDK9): 100%
- remaining binding at 10 µM (p38-delta; 10 µM i-CDK9): 98%
- remaining binding at 1 µM (DDR2; 1 µM i-CDK9): 100%
- remaining binding at 10 µM (DDR2; 10 µM i-CDK9): 92%
- remaining binding at 1 µM (SNRK): 64%
- remaining binding at 1 µM (PIK3CA(Q546K); 1 µM i-CDK9): 73%
- remaining binding at 10 µM (PIK3CA(Q546K); 10 µM i-CDK9): 100%
- remaining binding at 1 µM (ACVR1; 1 µM i-CDK9): 100%
- remaining binding at 10 µM (ACVR1; 10 µM i-CDK9): 100%
- remaining binding at 1 µM (EIF2AK1): 85%
- remaining binding at 1 µM (PAK6; 1 µM i-CDK9): 100%
- remaining binding at 10 µM (PAK6; 10 µM i-CDK9): 100%
- remaining binding at 1 µM (DMPK; 1 µM i-CDK9): 100%
- remaining binding at 10 µM (DMPK; 10 µM i-CDK9): 20%
- remaining binding at 1 µM (DCAMKL2; 1 µM i-CDK9): 100%
- remaining binding at 10 µM (DCAMKL2; 10 µM i-CDK9): 65%
- remaining binding at 1 µM (FLT3(K663Q); 1 µM i-CDK9): 100%
- remaining binding at 10 µM (FLT3(K663Q); 10 µM i-CDK9): 74%
- remaining binding at 1 µM (DYRK1A; 1 µM i-CDK9): 1.3%
- remaining binding at 10 µM (DYRK1A; 10 µM i-CDK9): 0%
- remaining binding at 1 µM (ZAK; 1 µM i-CDK9): 100%
- remaining binding at 10 µM (ZAK; 10 µM i-CDK9): 93%
- remaining binding at 1 µM (DRAK1; 1 µM i-CDK9): 90%
- remaining binding at 10 µM (DRAK1; 10 µM i-CDK9): 48%
- remaining binding at 1 µM (ERK8; 1 µM i-CDK9): 85%
- remaining binding at 10 µM (ERK8; 10 µM i-CDK9): 20%
- remaining binding at 1 µM (PIP5K2B; 1 µM i-CDK9): 100%
- remaining binding at 10 µM (PIP5K2B; 10 µM i-CDK9): 77%
- remaining binding at 1 µM (AURKB; 1 µM i-CDK9): 72%
- remaining binding at 10 µM (AURKB; 10 µM i-CDK9): 91%
- % Retention on Solid Support (PLK2; 1 µM i-CDK9): 100%
- % Retention on Solid Support (PLK2; 10 µM i-CDK9): 100%
